Measured values as given in patent US20260166029A1, “METHODS AND SYSTEMS FOR TREATING DISEASE USING AN ATR/CHK1 SIGNALING PATHWAY INHIBITOR” (Acrivon Therapeutics, Inc., priority 2022, published 2026).

How the values were obtained:
Experiment in all cases: Cell viability, sensitivity to prexasertib (Example 1)
U1752 = assay type: cell-based, human; details: U1752 cell line
Procedure: (§1) Predicted response to prexasertib was compared to experimentally measured sensitivity to prexasertib. […] EC50 values of less than or equal to 1 μM were considered to be actual responders, while values of greater than 1 μM were considered to be actual non-responders.

Kuramochi = assay type: cell-based, human; details: Kuramochi cell line
Procedure: as §1

CAOV3 = assay type: cell-based, human; details: CAOV3 cell line
Procedure: as §1

OVCAR3 = assay type: cell-based, human; details: OVCAR3 cell line
Procedure: as §1

A549 = assay type: cell-based, human; details: A549 cell line
Procedure: as §1

PC3 = assay type: cell-based, human; details: PC3 cell line
Procedure: as §1

BT549 = assay type: cell-based, human; details: BT549 cell line
Procedure: as §1

A2780 = assay type: cell-based, human; details: A2780 cell line
Procedure: as §1

U2020 = assay type: cell-based, human; details: U2020 cell line
Procedure: as §1

DU145 = assay type: cell-based, human; details: DU145 cell line
Procedure: as §1

MCF7 = assay type: cell-based, human; details: MCF7 cell line
Procedure: as §1

T47D = assay type: cell-based, human; details: T47D cell line
Procedure: as §1

PANC1 = system: PANC1; parameters: species or system human; details: PANC1 cell line; based on EC50 from prior publications
Procedure: as §1

HCT116 = system: HCT116; parameters: species or system human; details: HCT116 cell line; based on EC50 from prior publications
Procedure: as §1

[1] = Homo sapiens, reduction in cell viability by 50%
[2] = based on measured sensitivity (EC50)

EC50 (OVCAR3; Homo sapiens, OVCAR-3, reduction in cell viability by 50%): 19 nM
EC50 (A549; [1]): > 10000 nM
EC50 (PC3; Homo sapiens, PC-3, reduction in cell viability by 50%): > 10000 nM
EC50 (BT549; Homo sapiens, BT-549, reduction in cell viability by 50%): 21 nM
EC50 (A2780; [1]): > 10000 nM
EC50 (DU145; Homo sapiens, DU-145, reduction in cell viability by 50%): > 10000 nM
EC50 (MCF7; [1]): > 10000 nM
EC50 (T47D; [1]): > 10000 nM
Compound: COc1cccc(OCCCN)c1-c1cc(Nc2cnc(C#N)cn2)n[nH]1 [prexasertib, 5-(5-(2-(3-aminopropoxy)-6-methoxyphenyl)-1H-pyrazol-3-ylamino)pyrazine-2-carbonitrile]
EC50 (U1752; [1]): > 10000 nM
Actual response status (U1752; [2]): NR (values of greater than 1 μM were considered to be actual non-responders)
EC50 (Kuramochi; [1]): 24 nM
Actual response status (Kuramochi; [2]): R (EC50 values of less than or equal to 1 μM were considered to be actual responders)
Actual response status (CAOV3; [2]): R (EC50 values of less than or equal to 1 μM were considered to be actual responders)
EC50 (CAOV3; Homo sapiens, Caov-3, reduction in cell viability by 50%): 17 nM
Actual response status (OVCAR3; [2]): R (EC50 values of less than or equal to 1 μM were considered to be actual responders)
Actual response status (A549; [2]): NR (values of greater than 1 μM were considered to be actual non-responders)
Actual response status (PC3; [2]): NR (values of greater than 1 μM were considered to be actual non-responders)
Actual response status (BT549; [2]): R (EC50 values of less than or equal to 1 μM were considered to be actual responders)
Actual response status (A2780; [2]): NR (values of greater than 1 μM were considered to be actual non-responders)
EC50 (U2020; [1]): 7 nM
Actual response status (U2020; [2]): R (EC50 values of less than or equal to 1 μM were considered to be actual responders)
Actual response status (DU145; [2]): NR (values of greater than 1 μM were considered to be actual non-responders)
Actual response status (MCF7; [2]): NR (values of greater than 1 μM were considered to be actual non-responders)
Actual response status (T47D; [2]): NR (values of greater than 1 μM were considered to be actual non-responders)
Actual response status (PANC1): NR (values of greater than 1 μM were considered to be actual non-responders)
Actual response status (HCT116): R (EC50 values of less than or equal to 1 μM were considered to be actual responders)
